Measurements taken from US20250136722A1, “CYTOTOXICITY TARGETING CHIMERAS” (GLAXOSMITHKLINE INTELLECTUAL PROPERTY DEVELOPMENT LIMITED, priority 2021, published 2025).
Structures can show the parent of a compound that is named as a salt.

Molecular target: T1, CHOK1 cells engineered to overexpress human CCR2 (Homo sapiens, UniProt P41597)
T1 construct: expressed in transfected cells; host or cells: CHOK1 cells
Experiment: Antibody dependent cellular cytotoxicity (ADCC) reporter assay (Example 199)
Assay type: cell-based
Details: with anti-cotinine antibody SEQ ID NO: 11/12; CHOK1-human CCR2 target cells, Jurkat FcγRIIIa NFAT-luciferase reporter cells; 12-18 hours; read-out: ADCC Reporter Assay pEC50 (converted)
Description: An antibody dependent cellular cytoxicity reporter assay was conducted using the following four assay components: (i) ARM compound of Formula (I) targeting CCR2 (concentrations ranging from 1 pM to 10 μM) (ii) anti-cotinine antibody having a heavy chain sequence of SEQ ID NO: 11 and a light chain sequence of SEQ ID NO: 12 (rabbit variable region with human IgG1 Fc domain containing a DE mutation (S239D/1332E)) (concentrations ranging from 0.01 μg/mL to 200 μg/mL); (iii) target cells: CHOK1 cells engineered to overexpress either human CCR2 (typically 1000-20,000 cells per well) and (iv) reporter cells: Jurkat cells engineered to express FcγRIIIa with the reporter gene luciferase under the control of the NFAT promoter (typically 3000-75,000 cells per well). Reagents were combined in a final volume of 20 μL in a 384-well tissue culture treated plate. All four assay components were incubated together for about 12-18 hours. Thereafter, BioGlo Detection reagent (Promega) was added to the wells to lyse the cells and provide a substrate for the luciferase reporter protein. Luminescence signal was measured on a microplate reader and signal:background was calculated by dividing the signal of a test well by the signal obtained when no heterobivalent compound of Formula (I) was added. EC50 calculations were done using Graphpad Prism Software, specifically a nonlinear regression curve fit (Y=Bottom+(Top−Bottom)/(1+10^((Log EC50−X)*HillSlope))).
ARMs compounds of Formula (I) of the invention were tested for ADCC activity in the above assay in or more experimental runs and the results are shown in Table 3 below. Potency of the compounds of Formula (I) of the invention is reported as a pEC50 value. The pEC50 value is the negative log of the EC50 value, wherein the EC50 value is the half maximal effective concentration measured in molar (M). For compounds tested in more than one experimental run, the pEC50 value is reported as an average.

| SMILES | EC50 [nM] |
| --- | --- |
| CC(C)N(C)[C@@H]1CC[C@H](N2CC[C@H](Nc3ncnc4ccc(C(F)(F)F)cc34)C2=O)[C@H](NC(=O)c2cnn(C3CCN(CCOCCOCCOCCNC(=O)[C@H]4CC(=O)N(C)[C@@H]4c4cccnc4)CC3)c2)C1 [Example 129, N-((1R,2S,5R)-5-(Isopropyl(methyl)amino)-2-((S)-2-oxo-3-((6-(trifluoromethyl)quinazolin-4-yl)amino)pyrrolidin-1-yl)cyclohexyl)-1-(1-(1-((2S,3S)-1-methyl-5-oxo-2-(pyridin-3-yl)pyrrolidin-3-yl)-1-oxo-5,8,11-trioxa-2-azatridecan-13-yl)piperidin-4-yl)-1H-pyrazole-4-carboxamide] | 5.01 |
| CC(C)N(C)[C@@H]1CC[C@H](N2CC[C@H](Nc3ncnc4ccc(C(F)(F)F)cc34)C2=O)[C@H](NC(=O)C2CCC(N3CC(C(=O)NCCOCCOCCNC(=O)[C@H]4CC(=O)N(C)[C@@H]4c4cccnc4)C3)CC2)C1 (some centres unmarked) [Example 131] | 3.16 |
| CC(C)N(C)[C@@H]1CC[C@H](N2CC[C@H](Nc3ncnc4ccc(C(F)(F)F)cc34)C2=O)[C@H](NC(=O)[C@H]2CC[C@@H](N3CCC(C(=O)NCCOCCOCCNC(=O)[C@H]4CC(=O)N(C)[C@@H]4c4cccnc4)C(F)(F)C3)CC2)C1 (some centres unmarked) [Example 132] | 3.16 |
| CC(C)N(C)[C@@H]1CC[C@H](N2CC[C@H](Nc3ncnc4ccc(C(F)(F)F)cc34)C2=O)[C@H](NC(=O)c2ccc([C@H]3CC[C@@H](C(=O)NCCOCCOCCNC(=O)[C@H]4CC(=O)N(C)[C@@H]4c4cccnc4)CC3)cc2)C1 [Example 133] | 5.01 |
| CC(C)N(C)[C@@H]1CC[C@H](N2CC[C@H](Nc3ncnc4ccc(C(F)(F)F)cc34)C2=O)[C@H](NC(=O)[C@H]2CC[C@@H](N3CCC(C(=O)NCCOCCOCCNC(=O)[C@H]4CC(=O)N(C)[C@@H]4c4cccnc4)CC3)CC2)C1 [Example 134] | 0.0631 |
| CC(C)N(C)[C@@H]1CC[C@H](N2CC[C@H](Nc3ncnc4ccc(C(F)(F)F)cc34)C2=O)[C@H](NC(=O)[C@H]2CC[C@H](N3CCC(C(=O)NCCOCCOCCNC(=O)[C@H]4CC(=O)N(C)[C@@H]4c4cccnc4)CC3)CC2)C1 [Example 135] | 2.51 |
| CC(C)N(C)[C@@H]1CC[C@H](N2CC[C@H](Nc3ncnc4ccc(C(F)(F)F)cc34)C2=O)[C@H](NC(=O)CNC(=O)[C@H]2CC[C@@H](NC(=O)COCCOCCNC(=O)[C@H]3CC(=O)N(C)[C@@H]3c3cccnc3)CC2)C1 [Example 136, (2S,3S)-N-(2-(2-(2-(((1S,4R)-4-((2-(((1R,2S,5R)-5-(Isopropyl(methyl)amino)-2-((S)-2-oxo-3-((6-(trifluoromethyl)quinazolin-4-yl)amino)pyrrolidin-1-yl)cyclohexyl)amino)-2-oxoethyl)carbamoyl)cyclohexyl)amino)-2-oxoethoxy)ethoxy)ethyl)-1-methyl-5-oxo-2-(pyridin-3-yl)pyrrolidine-3-carboxamide] | 4.91 |
| CC(C)N(C)[C@@H]1CC[C@H](N2CC[C@H](Nc3ncnc4ccc(C(F)(F)F)cc34)C2=O)[C@H](NC(=O)[C@H]2CC[C@H](c3ccc(C(=O)NCCOCCOCCNC(=O)[C@H]4CC(=O)N(C)[C@@H]4c4cccnc4)cn3)CC2)C1 [Example 139, 6-((1R,4r)-4-(((1R,2S,5R)-5-(Isopropyl(methyl)amino)-2-((S)-2-oxo-3-((6-(trifluoromethyl)quinazolin-4-yl)amino)pyrrolidin-1-yl)cyclohexyl)carbamoyl)cyclohexyl)-N-(2-(2-(2-((2S,3S)-1-methyl-5-oxo-2-(pyridin-3-yl)pyrrolidine-3-carboxamido)ethoxy)ethoxy)ethyl)nicotinamide] | 3.98 |
| CC(C)N(C)[C@@H]1CC[C@H](N2CC[C@H](Nc3ncnc4ccc(C(F)(F)F)cc34)C2=O)[C@H](NC(=O)[C@H]2CC[C@H](c3ccc(C(=O)NCCOCCOCCNC(=O)[C@H]4CC(=O)N(C)[C@@H]4c4cccnc4)nc3)CC2)C1 [Example 141] | 2 |
| CC(C)N(C)[C@@H]1CC[C@H](N2CC[C@H](Nc3ncnc4ccc(C(F)(F)F)cc34)C2=O)[C@H](NC(=O)C2CCN(CCCCCCCCNC(=O)[C@H]3CC(=O)N(C)[C@@H]3c3cccnc3)CC2)C1 [Example 144, N-((1R,2S,5R)-5-(Isopropyl(methyl)amino)-2-((S)-2-oxo-3-((6-(trifluoromethyl)quinazolin-4-yl)amino)pyrrolidin-1-yl)cyclohexyl)-1-(8-((2S,3S)-1-methyl-5-oxo-2-(pyridin-3-yl)pyrrolidine-3-carboxamido)octyl)piperidine-4-carboxamide, 3Formic acid salt] | 3.16 |
| CC(C)N(C)[C@@H]1CC[C@H](N2CC[C@H](Nc3ncnc4ccc(C(F)(F)F)cc34)C2=O)[C@H](NC(=O)[C@H]2CC[C@@H](N3CCN(CCCCCCCCNC(=O)[C@H]4CC(=O)N(C)[C@@H]4c4cccnc4)CC3)CC2)C1 [Example 145] | 1.58 |
| CC(C)N(C)[C@@H]1CC[C@H](N2CC[C@H](Nc3ncnc4ccc(C(F)(F)F)cc34)C2=O)[C@H](NC(=O)[C@H]2CC[C@H](N3CCN(CCCCCCCCNC(=O)[C@H]4CC(=O)N(C)[C@@H]4c4cccnc4)CC3)CC2)C1 [Example 146] | 0.251 |
| CC(C)N(C)[C@@H]1CC[C@H](N2CC[C@H](Nc3ncnc4ccc(C(F)(F)F)cc34)C2=O)[C@H](NC(=O)C2CCN(CCOCCOCCOCCOCCNC(=O)[C@H]3CC(=O)N(C)[C@@H]3c3cccnc3)CC2)C1 [Example 147] | 1.26 |
| CC(C)N(C)[C@@H]1CC[C@H](N2CC[C@H](Nc3ncnc4ccc(C(F)(F)F)cc34)C2=O)[C@H](NC(=O)[C@H]2CC[C@@H](C(=O)NCCCN3CCN(CCCNC(=O)[C@H]4CC(=O)N(C)[C@@H]4c4cccnc4)CC3)CC2)C1 [Example 150, (1 s,4S)-N^1-((1R,2S,5R)-5-(Isopropyl(methyl)amino)-2-((S)-2-oxo-3-((6-(trifluoromethyl)quinazolin-4-yl)amino)pyrrolidin-1-yl)cyclohexyl)-N^4-(3-(4-(3-((2S,3S)-1-methyl-5-oxo-2-(pyridin-3-yl)pyrrolidine-3-carboxamido)propyl)piperazin-1-yl)propyl)cyclohexane-1,4-dicarboxamide] | 3.16 |
| CC(C)N(C)[C@@H]1CC[C@H](N2CC[C@H](Nc3ncnc4ccc(C(F)(F)F)cc34)C2=O)[C@H](NC(=O)COCCCCCCCCCOCCCCCCCNC(=O)[C@H]2CC(=O)N(C)[C@@H]2c2cccnc2)C1 [Example 153, (2S,3S)-N-(7-((9-(2-(((1R,2S,5R)-5-(Isopropyl(methyl)amino)-2-((S)-2-oxo-3-((6-(trifluoromethyl)quinazolin-4-yl)amino)pyrrolidin-1-yl)cyclohexyl)amino)-2-oxoethoxy)nonyl)oxy)heptyl)-1-methyl-5-oxo-2-(pyridin-3-yl)pyrrolidine-3-carboxamide] | 2.51 |
| CC(C)N(C)[C@@H]1CC[C@H](N2CC[C@H](Nc3ncnc4ccc(C(F)(F)F)cc34)C2=O)[C@H](NC(=O)[C@H]2CC[C@H](N3CCN(C(=O)CCCCCCCCNC(=O)[C@H]4CC(=O)N(C)[C@@H]4c4cccnc4)CC3)CC2)C1 [Example 155] | 1.58 |
| CC(C)N(C)[C@@H]1CC[C@H](N2CC[C@H](Nc3ncnc4ccc(C(F)(F)F)cc34)C2=O)[C@H](NC(=O)c2cnn(C3CCN(C(=O)CCCCCCCCCCNC(=O)[C@H]4CC(=O)N(C)[C@@H]4c4cccnc4)CC3)c2)C1 [Example 156] | 0.794 |
